Experiment [1] has as its system fluconazole-resistant C. albicans. The experiment in a line: In vitro assay for candidacidal activity of hLF-derived peptides and/or fluconazole (co-incubation, CFU count). The following applies: 1×10^6 CFU/ml, 2 h at 37°C; noncandidacidal peptide concentrations; fluconazole 100-200 µg/ml; Fig. 1. The experiment is classed as cell-based.
Procedure: • Figure 1 - Candidacidal activity of combinations of noncandidacidal concentrations of hLF(1-11), an N-terminal peptide of human lactoferrin and 200 µg/ml fluconazole (closed bars), 150 µg/ml fluconazole (black dotted bars), 100 µg/ml fluconazole (white dotted bars) or without this triazole (open bars). […] In short, 1×10^6 CFU fluconazole-resistant C. albicans/ml were incubated with combinations of hLF(1-11) and fluconazole for 2 h at 37°C and then the number of surviving Candida was determined microbiologically. […] In short, 1×10^6 CFU Candida/ml were preincubated for 5 min at 37°C with (8 µM) hLF(1-11) or (200 µg/ml) fluconazole, washed and then incubated for 2 h at 37°C with (200 µg/ml) fluconazole or (8 µM) hLF(1-11), respectively. As controls, Candida cells were incubated for 2 h at 37°C with (8 µM) hLF(1-11), (200 µg/ml) fluconazole, the combination of (8 µM) hLF(1-11) and (200 µg/ml) fluconazole or no agent. Results are means plus SD of at least three independent experiments.
Assay for candidacidal activity of hLF-derived peptides and fluconazole. […] After a 2 h incubation at 37°C with hLF peptides and/or fluconazole the number of viable blastoconidia was determined by plating serial dilutions of each sample on Sabouraud agar. Results are expressed as colony forming units (CFU) per ml.
Experiment [2] deals with Fluconazole-resistant C. albicans strain Y01-19. As to the kind of experiment: E-test for fluconazole resistance. The experiment is classed as cell-based. The following applies: Candida albicans. As to the method:
Fluconazole. Fluconazole (Pfizer Inc. New York, NY) was dissolved at a concentration of 1 mg/ml of dimethylsulfoxide (Fluka Chemie GmbH, Sigma-Aldrich Chemie BV, Zwijndrecht, The Netherlands) and stored at -20°C until use. From this stock solution appropriate concentrations were prepared in 10 mM of sodium phosphate buffer (pH 7.4), further referred to as NaPB. Source of C. albicans strain. Fluconazole-resistant C. albicans strain Y01-19 was purchased from Pfizer (Groton, Conn.). […] Fluconazole resistance (M.I.C.>256 µg/ml) was evaluated using the E-test (Oxoid Unipath Ltd., Basingstoke, UK). Yeasts were cultured overnight in Sabouraud broth (Oxoid) at 37°C and sub-cultured for 2,5 h on a rotary wheel at 37°C.

Bounds are passed on as bounds.

Turning to `OC(Cn1cncn1)(Cn1cncn1)c1ccc(F)cc1F` [Fluconazole], the candidacidal activity result in experiment [1] was “without effect”. Also, the MIC (as a rule, the smallest concentration in the dilution series that meets the test's criterion for growth inhibition) in experiment [2] is above 256 µg/mL.

The values are drawn from patent EP1360961A1, “Use of antimicrobial peptides for potentiating the activity of antimicrobial agents” (AM-Pharma B.V., priority 2002, dated 2003).
